In patent US20080058297A1, “Heterocyclic Compounds For Preventing And Treating Disorders Associated With Excessive Bone Loss” (Synta Pharmaceuticals Corp., priority 2003, published 2008):
Like-named read-outs stand apart in the source and are kept apart here.

Key:
[1] = tested on: Human peripheral blood mononuclear cells (PBMC); assay: Inhibition of osteoclast formation (RANKL/M-CSF induced, TRAP staining); type: cell-based
Description: (§1) Human peripheral blood mononuclear cells (PBMC) were isolated from healthy donor blood. The cells were seeded in multi-well plates at 7.5×10^5 cells/ml in RPMI 1640 medium including 10% FBS. Osteoclast formation was induced with 20 ng/ml of recombinant human receptor activator of NF-kB-ligand (RANKL) and 10 ng/ml of human M-CSF in the presence of various doses of test compounds. After 48 hours of culture, RANKL and M-CSF was replenished and further cultured for 2 days. Then, the cultured cells were stained for tartrate-resistant acid phosphatase (TRAP). Osteoclasts were identified as TRAP-positive cells with more than 3 nuclei. Total cell viability was assessed by CCK-8 assay (Dojindo, Gaithersburg, Md.) with 24 hour incubation.
as §1, with “Isolated” for “isolated”

[2] = Total cell viability by CCK-8 assay; type: cell-based; settings: human
Description: as §1
as §1, with “Isolated” for “isolated”

[3] = 96 h, read-out: IC50 (compound concentration required for 50% inhibition of osteoclast formation), Table 1, 20 ng/ml RANKL + 10 ng/ml M-CSF, TRAP-positive cells with more than 3 nuclei
[4] = 96 h, read-out: IC50 (compound concentration required for 50% inhibition of osteoclast formation), Table 2, 20 ng/ml RANKL + 10 ng/ml M-CSF, TRAP-positive cells with more than 3 nuclei
[5] = 96 h, read-out: IC50 (compound concentration required for 50% inhibition of osteoclast formation), Table 3, 20 ng/ml RANKL + 10 ng/ml M-CSF, TRAP-positive cells with more than 3 nuclei

Structure (SMILES) | IC50 [1, 3] | CC50 at 24 h ([2]; Table 1, 24 hour incubation) | IC50 [1, 4] | CC50 at 24 h ([2]; Table 2, 24 hour incubation) | other results
C[C@]12CC[C@@H]3c4ccc(O)cc4CC[C@H]3[C@@H]1CC[C@@H]2O [17β-estradiol, reference compound] |  |  |  |  | IC50 ([1]; read-out: IC50 (compound concentration required for 50% inhibition of osteoclast formation), Table 1, 20 ng/ml RANKL + 10 ng/ml M-CSF, TRAP-positive cells with more than 3 nuclei): 78 nM; IC50 ([1]; read-out: IC50 (compound concentration required for 50% inhibition of osteoclast formation), Table 2, 20 ng/ml RANKL + 10 ng/ml M-CSF, TRAP-positive cells with more than 3 nuclei): 78 nM; IC50 ([1]; read-out: IC50 (compound concentration required for 50% inhibition of osteoclast formation), Table 3, 20 ng/ml RANKL + 10 ng/ml M-CSF, TRAP-positive cells with more than 3 nuclei): 78 nM
Cc1cccc(/C=N/Nc2cc(N3CCOCC3)nc(OCCc3ccccn3)n2)c1 [Compound 12, N-(3-methyl-benzylidene)-N′-[6-morpholin-4-yl-2-(2-pyridin-2-yl-ethoxy)-pyrimidin-4-yl]-hydrazine] | 15 nM | 3250 nM |  |  | 
Cc1cccc(/C=N/Nc2cc(N3CCOCC3)nc(OCCc3cccc[n+]3[O-])n2)c1 [Compound 28, N-(3-methyl-benzylidene)-N′-{6-morpholin-4-yl-2-[2-(1-oxy-pyridin-2-yl)-ethoxy]-pyrimidin-4-yl}-hydrazine] | 70 nM | > 1000 nM |  |  | 
Cc1cccc(C=NNc2cc(N3CCOCC3)nc(OCC(O)c3ccccn3)n2)c1 (stereo not shown) [Compound 42, 2-{4-[N′-(3-Methyl-benzylidene)-hydrazino]-6-morpholin-4-yl-pyrimidin-2-yloxy}-1-pyridin-2-yl-ethanol] | 8 nM | > 1000 nM |  |  | 
Cc1cccc(/C=N/Nc2cc(N3CCOCC3)nc(OCCc3ccc(O)cn3)n2)c1 [Compound 43, 6-(2-{4-[N′-(3-Methyl-benzylidene)-hydrazino]-6-morpholin-4-yl-pyrimidin-2-yloxy}-ethyl)-pyridin-3-ol] | 12 nM | > 1000 nM |  |  | 
OCc1cccc(/C=N/Nc2cc(N3CCOCC3)nc(OCCc3ccc(O)cn3)n2)c1 [Compound 44, 6-(2-{4-[N′-(3-Hydroxymethyl-benzylidene)-hydrazino]-6-morpholin-4-yl-pyrimidin-2-yloxy}-ethyl)-pyridin-3-ol] | 17 nM | > 1000 nM |  |  | 
Cc1[nH]c2ccc(Nc3nc(OCCc4ccccn4)nc(N4CCOCC4)n3)cc2c1C [Compound 102] |  |  | 3 nM | > 1000 nM | 
COc1ccc(CCOc2nc(Nc3ccc4c(c3)oc3ccccc34)nc(N3CCOCC3)n2)cc1OC [Compound 113, Dibenzofuran-3-yl-{4-[2-(3,4-dimethoxy-phenyl)-ethoxy]-6-morpholin-4-yl-[1,3,5]triazin-2-yl}-amine] |  |  | 12 nM | > 1000 nM | 
c1cncc(OCCOc2nc(Nc3ccc4c(c3)oc3ccccc34)nc(N3CCOCC3)n2)c1 [Compound 114, Dibenzofuran-3-yl-{4-morpholin-4-yl-6-[2-(pyridin-3-yloxy)-ethoxy]-[1,3,5]triazin-2-yl}-amine] |  |  | 24 nM | > 1000 nM | 
Cc1[nH]c2cc(Nc3nc(OCCOc4cccnc4)nc(N4CCOCC4)n3)ccc2c1C [Compound 115, (2,3-Dimethyl-1H-indol-6-yl)-{4-morpholin-4-yl-6-[2-(pyridin-3-yloxy)-ethoxy]-[1,3,5]triazin-2-yl}-amine] |  |  | 16 nM | > 1000 nM | 
C(=NNc1nc(OCCc2ccccn2)nc(N2CCOCC2)n1)c1c[nH]c2ccccc12 [Compound 116, N-(1H-indol-3-ylmethylene)-N′-[4-morpholin-4-yl-6-(2-pyridin-2-yl-ethoxy)-[1,3,5]triazin-2-yl]-hydrazine] |  |  | 35 nM | > 10000 nM | 
Cc1cccc(Nc2nc3c(N4CCOCC4)nc(OCCOc4ccccn4)nc3[nH]2)c1 [Example 63, {6-morpholin-4-yl-2-[2-(pyridin-2-yloxy)-ethoxy]-9H-purin-8-yl}-m-tolyl-amine] |  |  |  |  | IC50 [1, 5]: 3 nM; CC50 at 24 h ([2]; Table 3, 24 hour incubation): > 1000 nM
Cc1cccc(Nc2nc(N3CCOCC3)c3nc(Nc4cccc(C)c4)[nH]c3n2)c1 [Example 79, 6-morpholin-4-yl-N^2,N^8-di-m-tolyl-9H-purine-2,8-diamine] |  |  |  |  | IC50 [1, 5]: 9 nM; CC50 at 24 h ([2]; Table 3, 24 hour incubation): > 1000 nM
Cc1cccc(Nc2nc(N3CCOCC3)c3nc(Nc4cccc(C)c4)n(C)c3n2)c1 [Example 116, 9-Methyl-6-morpholin-4-yl-N^2,N^8-di-m-tolyl-9H-purine-2,8-diamine] |  |  |  |  | IC50 [1, 5]: 2 nM; CC50 at 24 h ([2]; Table 3, 24 hour incubation): > 1000 nM
COc1ccc(N(C)c2nc(N3CCOCC3)c3nc(Nc4cccc(C)c4)[nH]c3n2)cc1 [Example 117, N^2-(4-Methoxy-phenyl)-N^2-methyl-6-morpholin-4-yl-N^8-m-tolyl-9H-purine-2,8-diamine] |  |  |  |  | IC50 [1, 5]: 12 nM; CC50 at 24 h ([2]; Table 3, 24 hour incubation): > 1000 nM
